Source: patent publication EP3494999A1, “PSMA LIGANDS FOR IMAGING AND ENDORADIOTHERAPY” (Technische Universität München, priority 2017, dated 2019)
Numbered stars: 1 amine (or outer) side, 2 acyl side, 3 side chain; on linkers, the order of the positions; unused ones are H or OH. Square brackets hold non-standard residues; d marks the D form. Side chains are listed from the residue outwards. Peptide text beside a SMILES is read from it. * marks the point of attachment. X2 = O=C(O)CC[C@H](NC(=O)N[C@@H](CCC(=O)N[C@H](CCCN*)C(=O)O)C(=O)O)C(=O)O; X1 = O=C(O)CC[C@H](NC(=O)N[C@@H](CCCCNC(=O)CCCCCCC(=O)*)C(=O)O)C(=O)O; DOTAGA = O=C(O)CN1CCN(CC(=O)O)CCN(C(CCC(=O)*)C(=O)O)CCN(CC(=O)O)CC1; dPhe(4-NH2) = Nc1ccc(C[C@@H](N)C(=O)O)cc1; Phe(4-NH2) = Nc1ccc(C[C@H](N)C(=O)O)cc1; d2Nal = N[C@H](Cc1ccc2ccccc2c1)C(=O)O; Suc = O=C(CCC(=O)[*:2])[*:1]

Columns and labels:
[1] = format: physicochemical
Method: To a volume of 500 µL n-octanol, 0.5 to 1.0 MBq of the radiolabeled PSMA inhibitor in 500 µL PBS (pH = 7.4) was added and rigorously vortexted for 3 min (n = 6). For quantitative phase separation, the mixture was centrifuged at 6,000 g for 5 min (Biofuge 15, Heraus Sepatech, Osterode, Germany).

PSMA [2] = molecular target: T1, PSMA (Homo sapiens, UniProt Q04609); assay: Determination of IC50: competitive binding against ([125I]I-BA)KuE on cells; parameters: endogenous in cells; LNCaP is named only for the xenografts; conditions: natLu complexes; displacement of ([125I]I-BA)KuE, 60 min on ice, HBSS (1% BSA)
T1 sequence (Q04609 whole entry): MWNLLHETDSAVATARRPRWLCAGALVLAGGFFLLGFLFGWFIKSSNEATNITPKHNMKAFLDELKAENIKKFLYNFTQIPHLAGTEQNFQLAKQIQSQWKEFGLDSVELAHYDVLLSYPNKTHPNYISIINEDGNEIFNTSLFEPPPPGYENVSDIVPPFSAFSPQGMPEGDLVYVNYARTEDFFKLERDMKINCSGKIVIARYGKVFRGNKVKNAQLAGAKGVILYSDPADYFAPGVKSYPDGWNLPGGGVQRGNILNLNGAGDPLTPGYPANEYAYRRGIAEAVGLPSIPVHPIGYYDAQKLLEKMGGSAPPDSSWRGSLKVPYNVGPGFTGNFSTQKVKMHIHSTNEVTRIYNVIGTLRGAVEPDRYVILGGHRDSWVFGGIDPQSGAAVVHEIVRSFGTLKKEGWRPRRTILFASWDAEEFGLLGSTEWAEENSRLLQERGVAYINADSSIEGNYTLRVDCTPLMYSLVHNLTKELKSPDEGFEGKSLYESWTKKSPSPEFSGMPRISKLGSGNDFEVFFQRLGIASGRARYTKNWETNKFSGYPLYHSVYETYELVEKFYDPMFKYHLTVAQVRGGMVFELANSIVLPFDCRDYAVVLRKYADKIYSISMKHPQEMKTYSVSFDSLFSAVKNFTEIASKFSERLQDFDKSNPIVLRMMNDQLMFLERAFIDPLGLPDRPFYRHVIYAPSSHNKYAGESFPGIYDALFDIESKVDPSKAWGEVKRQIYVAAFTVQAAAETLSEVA
Method: The corresponding ^natLu^III-complexes were prepared from a 2 mM aqueous solution of the PSMA inhibitor with a 2.5 molar excess of LuCl3 (20 mM solution), heated to 95 °C for 30 min. After cooling, the ^natLu^III-chelate formation was confirmed using HPLC and MS. […] Calculated monoisotopic mass (C67H92N11O23 Lu) = 1,593.6 found: m/z = 1,595.0 [M+H]^+, 798.2 [M+2H]^2+. [^natLu]DOTAGA-(4-NH2)f-y-nal-k-KuE ([^natLu]PSMA-5): HPLC (10 to 60% B in 15 min.): tR = 9.0 min K' = 3.5. Calculated monoisotopic mass (C76H102N13O24 Lu) = 1,755.7 found: m/z = 1,756.4 [M+H]^+, 879.0 [M+2H]^2+. [^natLu]DOTAGA-(4-NH2)F-y-nal-k-KuE ([^natLu]PSMA-6): HPLC (10 to 60% B in 15 min.): tR = 9.1 min K' = 3.6. Calculated monoisotopic mass (C76H102N13O24 Lu) = 1,755.7 found: m/z = 1,756.6 [M+H]^+, 878.8 [M+2H]^2+. [^natLu]DOTAGA-y-nal-k(Suc-(HO-δ-orn-γ-EuE))-OH ([^natLu]PSMA-7): HPLC (10 to 60 % B in 15 min): tR = 7.8 min K' = 2.9. Calculated monoisotopic mass (C67H89N12O26 Lu): 1,652.5 found: m/z = 1,653.9 [M+H]^+. [^natLu]DOTAGA-(4-NH2)f-y-nal-k(Suc-(HO-δ-orn-γ-EuE))-OH ([^natLu]PSMA-8): HPLC (10 to 60 % B in 15 min): tR = 7.3 min K' = 2.7. Calculated monoisotopic mass (C67H99N14O27Lu): 1,814.6 found: m/z = 1,815.9 [M+H]^+, 908.3 [M+2H]^2+. [^natLu]DOTAGA-(4-NH2)F-y-nal-k(Suc-(HO-δ-orn-γ-EuE))-OH ([^natLu]PSMA-9): HPLC (10 to 60 % B in 15 min): tR = 7.2 min K' = 2.6. Calculated monoisotopic mass (C67H99N14O27Lu): 1,814.6 found: m/z = 1,815.6 [M+H]^+, 908.3 [M+2H]^2+. [^natLu]DOTAGA-y-nal-k(Glut-(l-f)-KuE) ([^natLu]PSMA-10): HPLC (25 to 55% B in 15 min): tR = 10.6 min K' = 4.9. Calculated monoisotopic mass (C73H94IN12O24Lu): 1,825.5 found: m/z = 1,826.5 [M+H]^+, 913.8 [M+2H]^2+. [^natLu]DOTAGA-(4-NH2)f-y-nal-k(Glut-(l-f)-KuE) ([^natLu]PSMA-11): HPLC (10 to 60% B in 20 min): tR = 9.7 min K' = 3.9. Calculated monoisotopic mass (C82H104IN14O25Lu): 1,986.6 found: m/z = 1,987.5 [M+H]^+, 994.3 [M+2H]^2+.
The reaction solution was incubated for 10 min at RT, loaded on a cartridge and rinsed with 10 mL water (C18 Sep Pak Plus cartridge, preconditioned with 10 mL MeOH and 10 mL water). After elution with 2.0 mL of a 1:1 mix (v/v) of EtOH/MeCN, the radioactive solution was evaporated to dryness under a gentle nitrogen stream and treated with 200 µL TFA for 30 min with subsequent evaporation of TFA.
After removal of the culture medium, the cells were treated once with 500 µL of HBSS (Hank's balanced salt solution, Biochrom, Berlin, Germany, with addition of 1% bovine serum albumin (BSA)) and left 15 min on ice for equilibration in 200 µL HBSS (1% BSA). […] All experiments were performed at least three times for each concentration. After 60 min incubation on ice, the experiment was terminated by removal of the medium and consecutive rinsing with 200 µL of HBSS. The media of both steps were combined in one fraction and represent the amount of free radioligand. Afterwards, the cells were lysed with 250 µL of 1.0 M NaOH and united with the 200 µL HBSS of the following wash step. Quantification of bound and free radioligand was accomplished in a γ-counter.

PSMA [3] = molecular target: T1, PSMA; assay: Internalization of radiolabeled PSMA inhibitors into cells (PMPA blockade); format: cell-based; parameters: endogenous in cells; LNCaP is named only for the xenografts; conditions: 177Lu-labeled inhibitors, 37°C; reference basis of the % not stated
Method: The ^177Lu-labeled compounds, for in vitro studies, were prepared as previously described (Sosabowski, J.K. and S.J. Mather, Conjugation of DOTA-like chelating agents to peptides and radiolabeling with trivalent metallic isotopes. Nat. Protocols, 2006. 1(2): p. 972-976) with minor modifications and used without further purification. In short, to a reaction volume of 10 µL 1.0 M NH4OAc buffer pH = 5.9 was added 0.75 to 1.0 nmol tracer (7.5 to 10 µL), 10 to 40 MBq ^177LuCl3 (Specific Activity (AS) > 3000 GBq/mg, 740 MBq/mL, 0.04 M HCl, ITG, Garching, Germany) and finally filled up to 100 µL with trace-pure Water (Merck, Darmstadt, Germany). The reaction mixture was heated for 30 min at 95°C and the radiochemical purity was determined using Radio-TLC.
[…] Each well was treated with either 25 µL of either DMEM-F12 (5% BSA) or a 100 µM PMPA solution for blockade. Next, 25 µL of the respective ^68Ga-and ^177Lu-labeled PSMA inhibitors (2.0 nM / 5.0 nM) was added and the cells incubated at 37°C for 5, 15, 30 and 60 min, respectively. The experiment was terminated by placing the 24-well plate on ice for 3 min and consecutive removal of the medium. Each well was rinsed with 250 µL HBSS and the fractions from these first two steps combined, representing the amount of free radioligand. Removal of surface bound activity was accomplished by incubation of the cells with 250 µL of ice-cold PMPA (10 µM in PBS) solution for 5 min and rinsed again with another 250 µL of ice-cold PBS. The internalized activity was determined by incubation of the cells in 250 µL 1.0 M NaOH and the combination with the fraction of a subsequent wash step with 250 µL 1.0 M NaOH. Each experiment (control and blockade) was performed in triplicate for each time point. Free, surface bound and internalized activity was quantified in a γ-counter.

[4] = molecular target: T2, human serum albumin (HSA) (Homo sapiens, UniProt P02768); format: in vitro ADME
T2 construct: purchased Daicel Chemical Industries, purchased from Chiral Technologies Europe (France)
T2 sequence (P02768 25-609): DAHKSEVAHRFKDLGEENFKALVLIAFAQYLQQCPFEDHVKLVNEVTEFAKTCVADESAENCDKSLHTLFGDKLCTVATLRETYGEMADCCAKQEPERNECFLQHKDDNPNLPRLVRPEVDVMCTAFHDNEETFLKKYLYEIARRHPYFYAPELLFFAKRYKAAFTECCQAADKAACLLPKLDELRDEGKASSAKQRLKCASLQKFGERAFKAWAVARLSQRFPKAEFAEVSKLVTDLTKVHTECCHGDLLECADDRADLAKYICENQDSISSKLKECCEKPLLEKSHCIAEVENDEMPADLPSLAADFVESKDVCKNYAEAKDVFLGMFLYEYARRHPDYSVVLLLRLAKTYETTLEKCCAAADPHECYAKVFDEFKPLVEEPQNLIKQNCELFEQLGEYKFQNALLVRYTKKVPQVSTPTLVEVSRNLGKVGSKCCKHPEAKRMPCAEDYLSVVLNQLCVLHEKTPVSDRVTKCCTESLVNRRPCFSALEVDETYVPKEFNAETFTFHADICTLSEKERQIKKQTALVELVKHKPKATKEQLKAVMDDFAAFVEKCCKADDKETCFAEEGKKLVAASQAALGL
From the text: The Fmoc-(9-fluorenylmethoxycarbonyl-) and all other protected amino acid analogs were purchased from Bachem (Bubendorf, Switzerland) or Iris Biotech (Marktredwitz, Germany). […] The tritylchloride polystyrene (TCP) resin was obtained from PepChem (Tubingen, Germany). Chematech (Dijon, France) delivered the chelator DOTAGA-anhydride. All necessary solvents and other organic reagents were purchased from either Alfa Aesar (Karlsruhe, Germany), Sigma-Aldrich (Munich, Germany) or VWR (Darmstadt, Germany). Solid phase synthesis of the peptides was carried out by manual operation using an Intelli-Mixer syringe shaker (Neolab, Heidelberg, Germany). […] Analysis of the peptides was performed by applying different gradients of 0.1% (v/v) trifluoroacetic acid (TFA) in H2O (solvent A) and 0.1% TFA (v/v) in acetonitrile (MeCN) (solvent B) with a constant flow of 1 mL/min (specific gradients are cited in the text). […] Human serum albumin (HSA) binding was determined using a Chiralpak HSA 50 x 3 mm 5µm Analytical Column connected to a Chiralpak HSA 10 x 3 mm 5µm Guard Cartridge (Daicel Chemical Industries) purchased from Chiral Technologies Europe (France). Nonlinear regression for the HSA binding was performed using OriginPro 2016G. Both retention times tR as well as the capacity factors K' are cited in the text. […] Radioactivity was detected through connection of the outlet of the UV-photometer to a Nal(TI) well-type scintillation counter from EG&G Ortec (Munich, Germany). […] ESI-mass spectra were acquired on an expression^L CMS mass spectrometer (Advion Ltd., Harlow, UK) and on a Varian 500-MS IT mass spectrometer (Agilent Technologies, Santa Clara, USA). For the HSA binding experiment a Chiralpak HSA 50 x 3 mm 5µm Analytical Column, (Daicel Chemical Industries, LTD) connected to a Chiralpak HSA 10 x 3 mm 5µm Guard Cartridge (Daicel Chemical Industries; Chiral Technologies Europe) was used.
(§1) The mobile phase was freshly prepared for each experiment and only used for one day. The column was kept at room temperature and each run was stopped after detection of the signal to reduce the acquisition time. All substances were dissolved in a 0.5mg/ml concentration in 50% 2-Propanol and 50% 50mM pH 6.9 ammonium acetate buffer. […] All nine reference substances were injected consecutively to establish a non-linear regression with OriginPro 2016G. […] Table 1: Reference substances used for the calibration of the HSA-column.

human serum albumin [5] = molecular target: T3, human serum albumin (Homo sapiens, UniProt P02768); assay: Literature HSA binding of the reference substances used to calibrate the HSA column; conditions: logarithmic K of human serum albumin binding, from the literature HSA%
T3 sequence (P02768 25-609): as above
Method: as §1

human serum albumin [6] = molecular target: T3, human serum albumin; conditions: literature value of human serum albumin binding (Valko et al. or Yamazaki et al.); cited from earlier work

SMILES: Nc1ccc(C[C@@H](NC(=O)CCC(C(=O)O)N2CCN(CC(=O)O)CCN(CC(=O)O)CCN(CC(=O)O)CC2)C(=O)N[C@H](Cc2ccc(O)cc2)C(=O)N[C@H](Cc2ccc3ccccc3c2)C(=O)N[C@H](CCCCNC(=O)CCCCCCC(=O)NCCCC[C@H](NC(=O)N[C@@H](CCC(=O)O)C(=O)O)C(=O)O)C(=O)O)cc1 (stereo partly shown) [[^nat/177Lu]PSMA-5, DOTAGA-(4-NH2)f-y-nal-k-KuE, metal not drawn] ({DOTAGA}-[dPhe(4-NH2)][dY][d2Nal][dK](X1)-OH)
- logP [1]: -4.11 ± 0.06
- IC50 (PSMA [2]): 5.8 ± 1 nM
- Internalization [%] (PSMA [3]): 111.3 ± 11.1%

SMILES: Nc1ccc(C[C@@H](NC(=O)CCC(C(=O)O)N2CCN(CC(=O)O)CCN(CC(=O)O)CCN(CC(=O)O)CC2)C(=O)N[C@H](Cc2ccc(O)cc2)C(=O)N[C@H](Cc2ccc3ccccc3c2)C(=O)N[C@H](CCCCNC(=O)CCC(=O)NCCC[C@@H](NC(=O)CC[C@H](NC(=O)N[C@@H](CCC(=O)O)C(=O)O)C(=O)O)C(=O)O)C(=O)O)cc1 (stereo partly shown) [[^nat/177Lu]PSMA-8, DOTAGA-(4-NH2)f-y-nal-k(Suc-(HO-δ-orn-γ-EuE))-OH, metal not drawn] ({DOTAGA}-[dPhe(4-NH2)][dY][d2Nal][dK]([Suc-X2])-OH)
- logP [1]: -4.02 ± 0,25
- IC50 (PSMA [2]): 2.5 ± 0.6 nM
- Internalization [%] (PSMA [3]): 207.3 ± 8.5%

SMILES: O=C(O)CC[C@H](NC(=O)N[C@@H](CCCCNC(=O)CCCCCCC(=O)NCCCC[C@@H](NC(=O)[C@@H](Cc1ccccc1)NC(=O)[C@@H](Cc1ccc(O)c(I)c1)NC(=O)CCC(C(=O)O)N1CCN(CC(=O)O)CCN(CC(=O)O)CCN(CC(=O)O)CC1)C(=O)O)C(=O)O)C(=O)O (stereo partly drawn) [[^nat/177Lu]PSMA-1, DOTAGA-(l-y)-f-k-KuE, metal not drawn, reference compound]
- HSA [%] [4]: 78.6%
- logP [1]: -4.12 ± 0.1
- Internalization [%] (PSMA [3]): 75.5 ± 1.6%

SMILES: Oc1ccccc1 [Phenol]
- Log K HSA (human serum albumin [5]): -0.59
- Lit. HSA% (human serum albumin [6]): 20.69%

SMILES: CCCN(CCC)S(=O)(=O)c1ccc(C(=O)O)cc1 [Probenecid]
- Lit. HSA% (human serum albumin [6]): 95.00%

SMILES: O=C(O)CC[C@H](NC(=O)N[C@@H](CCC(=O)N[C@H](CCCNC(=O)CCC(=O)NCCCC[C@@H](NC(=O)[C@@H](Cc1ccc2ccccc2c1)NC(=O)[C@@H](Cc1ccc(O)cc1)NC(=O)CCC(C(=O)O)N1CCN(CC(=O)O)CCN(CC(=O)O)CCN(CC(=O)O)CC1)C(=O)O)C(=O)O)C(=O)O)C(=O)O (stereo partly shown) [[^nat/177Lu]PSMA-7, DOTAGA-y-nal-k(Suc-(HO-δ-orn-γ-EuE))-OH, metal not drawn, reference compound]
- IC50 (PSMA [2]): 3.1 ± 1 nM
- Internalization [%] (PSMA [3]): 216.2 ± 9.2%

SMILES: Nc1ccc(C[C@H](NC(=O)CCC(C(=O)O)N2CCN(CC(=O)O)CCN(CC(=O)O)CCN(CC(=O)O)CC2)C(=O)N[C@H](Cc2ccc(O)cc2)C(=O)N[C@H](Cc2ccc3ccccc3c2)C(=O)N[C@H](CCCCNC(=O)CCC(=O)NCCC[C@@H](NC(=O)CC[C@H](NC(=O)N[C@@H](CCC(=O)O)C(=O)O)C(=O)O)C(=O)O)C(=O)O)cc1 (stereo partly shown) [[^nat/177Lu]PSMA-9, DOTAGA-(4-NH2)F-y-nal-k(Suc-(HO-δ-orn-γ-EuE))-OH, metal not drawn] ({DOTAGA}-[Phe(4-NH2)][dY][d2Nal][dK]([Suc-X2])-OH)
- logP [1]: -4.01 ± 0.11
- IC50 (PSMA [2]): 2.5 ± 0.6 nM
